Data from patent publication US20070208021A1, “Phenoxyacetic Acid Derivatives and Drug Comprising The Same” (DAIICHI PHARMACEUTICAL CO., LTD., priority 2004, published 2007).
In brackets after ≈: the same amount, converted by molar mass. Counter-ions that a name gives are not always drawn. Like-named read-outs stand apart in the source and are kept apart here.

Legend:
hPPARγ = target: T1, hPPARγ (Homo sapiens, UniProt P37231); assay: GAL4-hPPAR transactivation assay (PPARγ); type: cell-based; settings: HEK293T cells, pFA-hPPARγ/GAL4 + pFR-SEAP reporter, about 48 hours
T1 construct: expressed in transfected cells; host or cells: HEK293T
T1 sequence (P37231 238-503 limits assumed): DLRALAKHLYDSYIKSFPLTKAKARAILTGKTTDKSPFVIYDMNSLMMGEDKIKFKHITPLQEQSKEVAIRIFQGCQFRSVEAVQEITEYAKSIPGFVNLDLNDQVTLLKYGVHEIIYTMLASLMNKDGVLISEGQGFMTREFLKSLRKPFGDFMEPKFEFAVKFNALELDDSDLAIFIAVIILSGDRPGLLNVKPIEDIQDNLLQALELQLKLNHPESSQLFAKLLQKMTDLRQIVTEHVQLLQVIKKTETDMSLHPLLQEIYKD
Text: (§1) GAL4-hPPAR Transactivation Assay
(§2) Plasmids for the expression of fusion protein for GAL4 DNA binding region-PPAR ligand binding region, pFA-hPPARα/GAL4 and pFA-hPPARγ/GAL4, were constructed by inserting the LBD cDNA of hPPARα and hPPARγ, respectively, into a commercially-available expression vector (pFA trans-activator plasmid, by STRATAGENE) having a GAL4 DNA binding region (GAL4 DBD) of yeast, under CMV promoter. For the expression of a reporter protein, used were a commercially-available plasmid (pFR-SEAP, by STRATAGENE) having a GAL4 responsive region (GAL4 UAS) in the upstream of cDNA of a secreted alkaline phosphatase (SEAP).
(§3) (b) Cell Culture and Transactivation Assay:
(§4) HEK293T cells were suspended in a high-glucose Dulbecco's modified Eagle's medium (DMEM) containing 10% fetal calf serum (by Hyclone), 100 U/mL penicillin G and […], and seeded in a 24-well cell culture plate in a density of 8×10^4 cells/well. The cells were cultured in a humidified atmosphere of 5% CO2 at 37° C. for 24 hours, and then subjected to transfection using Lipofectamine (by Invitrogen) and Plus reagent (by Invirogen) according to the manufacture's instruction in the absence of serum. Concretely, the cells were incubated in 225 μL of a transfection medium (OPTI-MEM, by Invitrogen) containing 0.48 μL of Lipofectamine, 0.030 μg of pFA-PPAR/GAL4 expression plasmid and 0.13 μg of pFR-SEAP, in a 5% CO2 atmosphere at 37° C. for 5 hours. Next, the same volume of a fresh high-glucose DMEM containing 10% fetal calf serum, 100 U/mL penicillin G, […] streptomycin sulfate and a test compound of two times the designated concentration was added to it, and the cells were incubated for about 48 hours. After the compound was solubilized in DMSO, control cells were incubated along with an equivalent concentration of DMSO. […] After the incubation, the culture supernatant was collected, and using a kit (reporter assay kit—SEAP, by TOYOBO), the SEAP activity was determined according to the manufacturer's instruction. Concretely, the same amount of an intrinsic alkaline phosphatase inhibitor was added to 5 μL of the culture supernatant and incubated at 37° C. for 30 minutes, and then 100 μL of a chemoluminescent substrate (Lumiphos PLUS, by Lumigen) was added thereto and incubated at 37° C. for 15 minutes, and thereafter the luminescence level was determined using a multi-label counter (ARVOsx, by Perkin Elmer). The values obtained as a result of the above operation and the concentrations of the test compound were plotted to obtain the EC50 value.

hPPARα = target: T2, hPPARα (Homo sapiens, UniProt Q07869); assay: GAL4-hPPAR transactivation assay (PPARα); type: cell-based; settings: HEK293T cells, pFA-hPPARα/GAL4 + pFR-SEAP reporter, about 48 hours
T2 construct: expressed in transfected cells; host or cells: HEK293T
T2 sequence (Q07869 239-466 limits assumed): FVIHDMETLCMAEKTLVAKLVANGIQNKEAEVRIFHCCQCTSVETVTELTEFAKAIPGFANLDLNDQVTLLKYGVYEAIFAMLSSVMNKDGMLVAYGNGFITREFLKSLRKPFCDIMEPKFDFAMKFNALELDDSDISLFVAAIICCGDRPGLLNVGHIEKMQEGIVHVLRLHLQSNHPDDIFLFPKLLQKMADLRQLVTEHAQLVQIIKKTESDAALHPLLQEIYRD
Text: as §1, §2, §3, §4

[1] = Determination of solubility in JP-fluid 1 / JP-fluid 2 (HPLC); type: physicochemical; settings: thermodynamic from solid, 12 hours or more
Procedure: Determination of Solubility
One mg of a test compound was put into a test tube, and 1 ml of the first fluid for Japanese Pharmacopoeia Disintegration Test Method (synthetic gastric juice, pH 1.2: hereinafter referred to as JP-fluid 1) or the second fluid for Japanese Pharmacopoeia Disintegration Test Method (synthetic intestinal juice, pH 6.8: hereinafter referred to as JP-fluid 2) was added thereto and shaken, and then statically left at room temperature for 12 hours or more. After thus left, the sample was filtered through a 0.45-μm membrane filter, and the filtrate was suitably diluted with a mixture of DMSO-purified water (1/1) to prepare solutions for solubility determination.
Apart from the above, 1 mg of the test compound was put into a 20-mL messflask, and dissolved in a mixture of DMSO-purified water (1/1) to prepare a standard solution of 50 μg/mL. The standard solution was stepwise diluted to give serial dilutions, and using the dilutions, a calibration curve was formed.
The above-mentioned solutions for solubility determination with the JP-fluid 1 or the JP-fluid 2 were analyzed through HPLC, and based on the calibration curve formed in the above, the solubility of the test compound was computed.
The HPLC condition is as follows:
HPLC System for Alliance Assay (by Waters, USA),
Feed Pump: 2795 separation module,
UV Detector: 2996 photodiode array detector,
Column: ODS-type C18 column (3.5 μm, 3.0 mm ID×30 mm),
Column Temperature: 60° C.,
Mobile Phase A: pH 4.5, 10 mM acetate buffer,
Mobile Phase B: 50% acetic acid-acetonitrile mixture (1/999),
Gradient Condition: mobile phase A/B ratio, 95/5 to 10/90,
Sample Temperature: 25° C.,
Detection Wavelength: maximum absorption wavelength within a range of 220 to 420 nm.

[2] = Lipid solubility: octanol / pH 7.4 phosphate buffer partition coefficient; type: physicochemical; settings: n-octanol / pH 7.4 isotonic phosphate buffer, read-out: log D (pH 7.4)
Procedure: An equi-volume mixture of n-octanol (hereinafter referred to as octanol) and pH 7.4 isotonic phosphate buffer (hereinafter referred to as aqueous phase) was shaken in a suitable vessel, then statically left for 24 hours or more, and the upper layer (water-saturated octanol) and the lower layer (octanol-saturated water) were separately collected.
1 mg of a test compound was put into a test tube, and 5 ml of the water-saturated octanol was added thereto, ultrasonicated for 10 minutes and then stirred for about 30 seconds. In case where an insoluble substance was seen, then the liquid was filtered through a 0.45-μm membrane filter. 2 mL of the water-saturated octanol solution of the test compound was taken into a test tube, 2 mL of the octanol-saturated water was added thereto and shaken for 30 minutes. Then, this was centrifuged to separate into an upper layer (octanol phase) and a lower layer (aqueous phase), which were then separately collected.
The octanol phase and the aqueous phase were suitably diluted with DMSO, and the concentration of the test compound therein was determined through UV-detection HPLC or MS-detection HPLC.
From the concentration measured in each phase and the dilution ratio of each phase, the partition coefficient was derived through computation.
In case where the solubility in water of the test compound is estimated to be high, then the test compound is dissolved in the octanol-saturated water and then the water-saturated octanol is added thereto, shaken and centrifuged, and the upper layer (octanol phase) and the lower layer (aqueous phase) are separately collected to determine the concentration of the test compound.
The details of the HPLC apparatus and its operation condition are as follows: […]

[3] = db/db mice, as compared with pioglitazone; cited from earlier work
[4] = in vivo; cited from earlier work
[5] = patients associated with type II diabetes; cited from earlier work
[6] = fassgf or other biorelevant, synthetic intestinal juice, pH 6.8, room temperature, read-out: Solubility JP-fluid 2
[7] = simulated gastric fluid, synthetic gastric juice, pH 1.2, room temperature, read-out: Solubility JP-fluid 1

Row | Structure (SMILES) | EC50 (hPPARγ) [nM] | EC50 (hPPARα) [nM] | solubility [1, 6] [µg/mL] | solubility [1, 7] [µg/mL] | logD [2] | body weight increase [3] | high-density lipoprotein (HDL) [4] | plasma triglyceride [4] | body weight increase or fluid accumulation [5]
1 | Cc1oc(-c2cccc(Br)c2)nc1CN(Cc1ccncc1)Cc1ccc(OC(C)(C)C(=O)O)cc1 [Example 4-(2), 2-[4-[[[2-(3-Bromophenyl)-5-methyloxazol-4-ylmethyl]pyridin-4-ylmethylamino]methyl]phenoxy]-2-methylpropionic acid] | 180 | 4.8 | < 3 | 930 (≈ 1690 µM) | 2.5 | – | – | – | –
2 | Cc1oc(-c2cccc(Br)c2)nc1CN(Cc1ccc(OC(C)(C)C(=O)O)cc1)Cc1cscn1 [Example 5-(2), 2-[4-[[[2-(3-Bromophenyl)-5-methyloxazol-4-ylmethyl]thiazol-4-ylmethylamino]methyl]phenoxy]-2-methylpropionic acid hydrochloride] | 220 | 2.6 | 680 | 520 | 2.3 | – | – | – | –
3 | COc1ccc(CC2SC(=O)NC2=O)cc1C(=O)NCc1ccc(C(F)(F)F)cc1 (centres unmarked) [KRP-297] | – | – | – | – | – | significantly inhibits the body weight increase | – | – | –
4 | Cc1oc(-c2ccc(-c3ccccc3)cc2)nc1CCOc1ccc(OC(C)(C)C(=O)O)cc1 [LY465608] | – | – | – | – | – | – | dose-dependently increases | lowers | –
5 | CCc1ccc(CCOc2ccc(CC3SC(=O)NC3=O)cc2)nc1 (centres unmarked) [Pioglitazone, pioglitazone] | – | – | – | – | – | – | – | – | observed in some patients
6 | Cc1cc(CN(Cc2ccco2)Cc2sc(-c3ccc(C(F)(F)F)cc3)nc2C)ccc1OC(C)(C)C(=O)O [SKB-compd, reference compound] | 48 | 44 | 10 (≈ 17.9 µM) | 240 (≈ 430 µM) | 4.4 | – | – | – | –

Now from value to molecule, other results behind:

Row | EC50 (hPPARγ) [nM] | EC50 (hPPARα) [nM] | solubility [1, 6] [µg/mL] | solubility [1, 7] [µg/mL] | logD [2] | Structure (SMILES) | body weight increase [3] | high-density lipoprotein (HDL) [4] | plasma triglyceride [4] | body weight increase or fluid accumulation [5]
7 | 590 | 13 | > 1000 | 490 | 2.7 | Cc1oc(-c2cccc(Br)c2)nc1CN(Cc1ccc(OC(C)(C)C(=O)O)cc1)Cc1nccs1 [Example 1-(2), 2-[4-[[[2-(3-Bromophenyl)-5-methyloxazol-4-ylmethyl]thiazol-2-ylmethylamino]methyl]phenoxy-2-methylpropionic acid hydrochloride] | – | – | – | –
8 | 5.5 | 3.7 | > 870 | > 870 | 1.8 | Cc1cc(CN(Cc2ncco2)Cc2nc(-c3ccccc3)oc2C)cc(C)c1OC(C)(C)C(=O)O [Example 13-(2), 2-[2,6-Dimethyl-4-[[(5-methyl-2-phenyloxazol-4-ylmethyl)oxazol-2-ylmethylamino]methyl]phenoxy]-2-methylpropanoic acid] | – | – | – | –
9 | 8.8 | 2.4 | 480 (≈ 949 µM) | > 490 | 2.6 | Cc1cc(CN(Cc2nccs2)Cc2nc(-c3ccccc3)oc2C)cc(C)c1OC(C)(C)C(=O)O [Example 16-(2), 2-[2,6-Dimethyl-4-[[(5-methyl-2-phenyloxazol-4-ylmethyl)thiazol-2-ylmethylamino]methyl]phenoxy]-2-methylpropanoic acid] | – | – | – | –
10 | 33 | 2.9 | > 710 | > 710 | 1.1 | Cc1nnc(CN(Cc2cc(C)c(OC(C)(C)C(=O)O)c(C)c2)Cc2nc(-c3ccccc3)oc2C)o1 [Example 18-(2), 2-[2,6-Dimethyl-4-[[(5-methyl-[1,3,4]oxadiazol-2-ylmethyl)-(5-methyl-2-phenyloxazol-4-ylmethyl)amino]methyl]phenoxy]-2-methylpropanoic acid] | – | – | – | –
11 | 6.9 | 2.7 | > 710 | 650 (≈ 1290 µM) | 1.8 | Cc1noc(CN(Cc2cc(C)c(OC(C)(C)C(=O)O)c(C)c2)Cc2nc(-c3ccccc3)oc2C)n1 [Example 19-(3), 2-[2,6-Dimethyl-4-[[(3-methyl-[1,2,4]oxadiazol-5-ylmethyl)-(5-methyl-2-phenyloxazol-4-ylmethyl)amino]methyl]-phenoxy]-2-methylpropanoic acid] | – | – | – | –
